Data: patent US12522583B2, “Benzimidazole derivatives and aza-benzimidazole derivatives as Janus kinase 2 inhibitors and uses thereof” (Dana-Farber Cancer Institute, Inc., priority 2018, dated 2026)

Experiments:
Test in all cases: KINOMEscan
Type in all cases: binding
Details in all cases: read-out: percent control
HIPK2 = HIPK2 (Homo sapiens (Human), UniProt Q9H2X6)
Source text: (§1) Example 2. In Vitro Kinase Selectivity Profiling of the Compounds of the Present Disclosure

TSSK3 = TSSK3 (Homo sapiens (Human), UniProt Q96PN8)
Source text: as §1

MAK = MAK (Homo sapiens (Human), UniProt P20794)
Source text: as §1

ADCK3 = ADCK3 (Homo sapiens (Human), UniProt Q8NI60)
Source text: as §1

EGFR(E746-A750del) = EGFR(E746-A750del) (Homo sapiens (Human), UniProt P00533, DEL746-750)
Source text: as §1

STK36 = STK36 (Homo sapiens (Human), UniProt Q9NRP7)
Source text: as §1

BLK = BLK (Homo sapiens (Human), UniProt P51451)
Source text: as §1

PIK3CA(E545A) = PIK3CA(E545A) (Homo sapiens (Human), UniProt P42336, E545A)
Source text: as §1

KIT(D816V) = KIT(D816V) (Homo sapiens (Human), UniProt P10721, D816V)
Source text: as §1

FLT3(D835Y) = FLT3(D835Y) (Homo sapiens (Human), UniProt P36888, D835Y)
Source text: as §1

RIOK2 = RIOK2 (Homo sapiens (Human), UniProt Q9BVS4)
Source text: as §1

EGFR(G719S) = EGFR(G719S) (Homo sapiens (Human), UniProt P00533, G719S)
Source text: as §1

TLK1 = TLK1 (Homo sapiens (Human), UniProt Q9UKI8)
Source text: as §1

TBK1 = TBK1 (Homo sapiens (Human), UniProt Q9UHD2)
Source text: as §1

CSNK1D = CSNK1D (Homo sapiens (Human), UniProt P48730)
Chain of CSNK1D (P48730 whole entry): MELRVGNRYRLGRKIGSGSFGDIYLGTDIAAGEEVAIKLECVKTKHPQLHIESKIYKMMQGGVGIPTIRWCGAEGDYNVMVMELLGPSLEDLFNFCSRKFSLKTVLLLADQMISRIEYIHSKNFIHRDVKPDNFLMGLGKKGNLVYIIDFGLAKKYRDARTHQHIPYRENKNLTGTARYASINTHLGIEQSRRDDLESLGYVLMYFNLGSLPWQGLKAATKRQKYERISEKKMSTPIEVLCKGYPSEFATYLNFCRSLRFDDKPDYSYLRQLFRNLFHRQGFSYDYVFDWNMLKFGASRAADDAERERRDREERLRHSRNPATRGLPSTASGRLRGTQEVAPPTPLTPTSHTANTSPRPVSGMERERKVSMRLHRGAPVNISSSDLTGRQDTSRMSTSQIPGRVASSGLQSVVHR
Source text: as §1

ABL1-phosphorylated = ABL1-phosphorylated (Homo sapiens (Human), UniProt P00519)
Source text: as §1

ICK = ICK (Homo sapiens (Human), UniProt Q9UPZ9)
Source text: as §1

TIE1 = TIE1 (Homo sapiens (Human), UniProt P35590)
Source text: as §1

MYLK4 = MYLK4 (Homo sapiens (Human), UniProt Q86YV6)
Source text: as §1

NEK2 = NEK2 (Homo sapiens (Human), UniProt P51955)
Chain of NEK2 (P51955 whole entry): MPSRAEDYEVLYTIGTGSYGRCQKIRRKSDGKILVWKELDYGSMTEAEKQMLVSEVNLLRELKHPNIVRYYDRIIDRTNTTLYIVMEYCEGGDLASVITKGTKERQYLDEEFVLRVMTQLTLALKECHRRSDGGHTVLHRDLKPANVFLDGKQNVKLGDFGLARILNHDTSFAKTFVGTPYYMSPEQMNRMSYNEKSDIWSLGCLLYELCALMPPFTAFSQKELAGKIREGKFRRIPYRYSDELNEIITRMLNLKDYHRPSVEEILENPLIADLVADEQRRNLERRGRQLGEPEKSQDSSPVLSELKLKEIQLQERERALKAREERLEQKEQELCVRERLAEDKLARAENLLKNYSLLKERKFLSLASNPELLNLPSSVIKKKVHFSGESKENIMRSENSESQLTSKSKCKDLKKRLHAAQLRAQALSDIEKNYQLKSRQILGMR
Source text: as §1

CHEK2 = CHEK2 (Homo sapiens (Human), UniProt O96017)
Source text: as §1

PDGFRA = PDGFRA (Homo sapiens (Human), UniProt P16234)
Source text: as §1

[1] = target: ABL1(E255K)-phosphorylated (Homo sapiens (Human), UniProt P00519, E255K)
Chain of ABL1(E255K)-phosphorylated (P00519 whole entry E255K): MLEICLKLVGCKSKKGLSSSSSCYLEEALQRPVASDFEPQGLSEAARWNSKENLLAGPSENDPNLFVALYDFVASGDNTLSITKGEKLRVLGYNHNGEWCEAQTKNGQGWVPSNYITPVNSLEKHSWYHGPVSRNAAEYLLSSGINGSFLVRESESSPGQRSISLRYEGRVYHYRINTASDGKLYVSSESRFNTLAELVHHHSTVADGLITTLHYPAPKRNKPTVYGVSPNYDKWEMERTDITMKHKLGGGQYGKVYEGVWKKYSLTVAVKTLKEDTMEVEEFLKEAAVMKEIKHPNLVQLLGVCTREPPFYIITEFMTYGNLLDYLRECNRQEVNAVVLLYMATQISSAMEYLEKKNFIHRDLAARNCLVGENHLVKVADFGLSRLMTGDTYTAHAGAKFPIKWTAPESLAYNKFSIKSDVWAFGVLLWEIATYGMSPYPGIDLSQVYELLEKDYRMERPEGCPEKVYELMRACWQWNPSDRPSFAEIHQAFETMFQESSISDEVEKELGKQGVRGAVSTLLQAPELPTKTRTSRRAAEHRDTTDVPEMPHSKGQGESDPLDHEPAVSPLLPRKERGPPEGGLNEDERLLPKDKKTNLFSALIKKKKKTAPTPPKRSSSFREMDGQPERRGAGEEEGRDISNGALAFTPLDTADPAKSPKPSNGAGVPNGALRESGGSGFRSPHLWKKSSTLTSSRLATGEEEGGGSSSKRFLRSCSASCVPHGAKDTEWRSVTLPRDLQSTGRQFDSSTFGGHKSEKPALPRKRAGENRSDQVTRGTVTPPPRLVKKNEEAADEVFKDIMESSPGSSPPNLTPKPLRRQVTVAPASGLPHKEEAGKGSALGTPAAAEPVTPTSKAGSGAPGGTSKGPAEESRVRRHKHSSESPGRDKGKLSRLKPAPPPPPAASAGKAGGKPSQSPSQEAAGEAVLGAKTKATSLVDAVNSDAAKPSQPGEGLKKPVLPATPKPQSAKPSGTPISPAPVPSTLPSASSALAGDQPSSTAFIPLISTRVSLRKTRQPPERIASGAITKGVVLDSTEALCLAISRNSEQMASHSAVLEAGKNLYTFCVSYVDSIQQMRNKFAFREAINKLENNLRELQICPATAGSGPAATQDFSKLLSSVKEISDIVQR
Source text: as §1

PRKD3 = PRKD3 (Homo sapiens (Human), UniProt O94806)
Chain of PRKD3 (O94806 whole entry): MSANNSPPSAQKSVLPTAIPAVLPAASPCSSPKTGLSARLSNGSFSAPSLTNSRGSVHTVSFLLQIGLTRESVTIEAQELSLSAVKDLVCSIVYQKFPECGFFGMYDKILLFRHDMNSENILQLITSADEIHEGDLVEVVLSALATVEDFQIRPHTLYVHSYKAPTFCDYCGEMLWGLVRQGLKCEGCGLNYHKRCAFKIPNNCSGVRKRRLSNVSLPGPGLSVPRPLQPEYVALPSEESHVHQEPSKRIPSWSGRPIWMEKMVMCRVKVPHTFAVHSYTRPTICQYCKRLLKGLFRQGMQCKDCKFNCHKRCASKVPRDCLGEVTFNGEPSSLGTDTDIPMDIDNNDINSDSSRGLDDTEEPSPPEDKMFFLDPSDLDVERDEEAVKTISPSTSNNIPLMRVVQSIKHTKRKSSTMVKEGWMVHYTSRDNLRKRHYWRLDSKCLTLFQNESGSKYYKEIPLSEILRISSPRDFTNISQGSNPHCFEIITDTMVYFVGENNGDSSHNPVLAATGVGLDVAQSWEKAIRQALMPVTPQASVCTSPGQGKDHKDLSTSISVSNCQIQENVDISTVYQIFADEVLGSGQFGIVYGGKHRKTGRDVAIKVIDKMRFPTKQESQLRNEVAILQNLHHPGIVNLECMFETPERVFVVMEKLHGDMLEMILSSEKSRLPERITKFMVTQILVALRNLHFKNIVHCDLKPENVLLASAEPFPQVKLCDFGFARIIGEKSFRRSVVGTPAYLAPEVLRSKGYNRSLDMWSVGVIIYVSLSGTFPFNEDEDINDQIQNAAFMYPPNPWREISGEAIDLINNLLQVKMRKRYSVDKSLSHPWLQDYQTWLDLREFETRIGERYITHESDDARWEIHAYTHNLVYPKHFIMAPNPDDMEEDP
Source text: as §1

PRKCH = PRKCH (Homo sapiens (Human), UniProt P24723)
Source text: as §1

NEK4 = NEK4 (Homo sapiens (Human), UniProt P51957)
Source text: as §1

ANKK1 = ANKK1 (Homo sapiens (Human), UniProt Q8NFD2)
Source text: as §1

JNK3 = JNK3 (Homo sapiens (Human), UniProt P53779)
Source text: as §1

ITK = ITK (Homo sapiens (Human), UniProt Q08881)
Source text: as §1

NDR2 = NDR2 (Homo sapiens (Human), UniProt Q9Y2H1)
Source text: as §1

[2] = target: RSK3(Kin.Dom.1-N-terminal) (Homo sapiens (Human), UniProt Q15349)
Chain of RSK3(Kin.Dom.1-N-terminal) (Q15349 59-318 limits assumed): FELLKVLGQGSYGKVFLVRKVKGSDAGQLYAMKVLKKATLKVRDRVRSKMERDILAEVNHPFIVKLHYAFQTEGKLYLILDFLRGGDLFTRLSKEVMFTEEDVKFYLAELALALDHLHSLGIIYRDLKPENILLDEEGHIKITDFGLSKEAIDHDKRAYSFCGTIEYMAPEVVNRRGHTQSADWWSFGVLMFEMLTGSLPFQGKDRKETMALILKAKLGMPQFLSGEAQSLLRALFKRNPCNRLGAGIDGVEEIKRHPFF
Source text: as §1

ADCK4 = ADCK4 (Homo sapiens (Human), UniProt Q96D53)
Chain of ADCK4 (Q96D53 whole entry): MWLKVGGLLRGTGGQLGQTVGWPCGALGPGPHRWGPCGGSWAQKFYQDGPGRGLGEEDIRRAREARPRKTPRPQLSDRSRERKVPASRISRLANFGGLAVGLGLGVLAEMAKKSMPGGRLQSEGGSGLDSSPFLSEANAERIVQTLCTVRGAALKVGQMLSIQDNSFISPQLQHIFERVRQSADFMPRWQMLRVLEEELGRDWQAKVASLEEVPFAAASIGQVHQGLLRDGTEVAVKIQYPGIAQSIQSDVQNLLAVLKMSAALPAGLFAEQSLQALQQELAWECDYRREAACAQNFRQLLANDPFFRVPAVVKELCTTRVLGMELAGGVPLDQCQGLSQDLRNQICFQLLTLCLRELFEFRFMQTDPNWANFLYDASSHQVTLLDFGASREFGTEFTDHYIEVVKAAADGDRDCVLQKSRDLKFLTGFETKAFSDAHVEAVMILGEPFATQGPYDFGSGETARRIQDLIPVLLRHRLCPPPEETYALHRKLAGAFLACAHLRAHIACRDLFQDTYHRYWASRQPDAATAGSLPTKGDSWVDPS
Source text: as §1

RET(V804L) = RET(V804L) (Homo sapiens (Human), UniProt P07949, V804L)
Chain of RET(V804L) (P07949 29-1114 V804L): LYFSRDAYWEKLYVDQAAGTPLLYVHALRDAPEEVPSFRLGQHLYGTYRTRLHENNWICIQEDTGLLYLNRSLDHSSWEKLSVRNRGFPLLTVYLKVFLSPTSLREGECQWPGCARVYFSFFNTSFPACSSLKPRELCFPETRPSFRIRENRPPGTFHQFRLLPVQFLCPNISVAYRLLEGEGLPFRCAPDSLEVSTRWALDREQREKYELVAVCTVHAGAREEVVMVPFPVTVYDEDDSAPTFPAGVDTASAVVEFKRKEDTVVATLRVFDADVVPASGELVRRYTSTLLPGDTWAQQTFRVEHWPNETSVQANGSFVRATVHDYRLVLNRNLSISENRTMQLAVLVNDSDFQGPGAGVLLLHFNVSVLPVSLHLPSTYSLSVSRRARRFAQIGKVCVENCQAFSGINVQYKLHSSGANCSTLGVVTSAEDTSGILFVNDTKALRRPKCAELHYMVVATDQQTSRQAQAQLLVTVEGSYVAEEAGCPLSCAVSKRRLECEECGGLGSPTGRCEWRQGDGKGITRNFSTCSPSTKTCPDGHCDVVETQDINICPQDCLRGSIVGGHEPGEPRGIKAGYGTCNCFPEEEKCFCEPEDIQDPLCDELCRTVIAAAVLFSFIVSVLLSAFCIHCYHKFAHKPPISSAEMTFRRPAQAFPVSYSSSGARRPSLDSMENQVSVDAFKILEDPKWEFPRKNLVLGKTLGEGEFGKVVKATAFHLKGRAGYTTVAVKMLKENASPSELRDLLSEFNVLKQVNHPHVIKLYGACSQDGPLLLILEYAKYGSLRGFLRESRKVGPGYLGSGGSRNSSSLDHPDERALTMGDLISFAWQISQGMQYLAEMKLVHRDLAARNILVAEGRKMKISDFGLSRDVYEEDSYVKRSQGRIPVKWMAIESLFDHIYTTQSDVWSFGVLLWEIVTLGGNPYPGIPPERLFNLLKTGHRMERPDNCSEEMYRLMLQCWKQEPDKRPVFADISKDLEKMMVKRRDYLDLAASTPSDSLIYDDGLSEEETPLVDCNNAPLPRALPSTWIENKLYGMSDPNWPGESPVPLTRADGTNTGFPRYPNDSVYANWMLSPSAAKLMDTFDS
Source text: as §1

PIK4CB = PIK4CB (Homo sapiens (Human), UniProt Q9UBF8)
Source text: as §1

GRK7 = GRK7 (Homo sapiens (Human), UniProt Q8WTQ7)
Source text: as §1

KIT(V559D, T670I) = KIT(V559D, T670I) (Homo sapiens (Human), UniProt P10721, T670I/V559D)
Source text: as §1

[3] = target: RSK4(Kin.Dom.2-C-terminal) (Homo sapiens (Human), UniProt Q9UK32)
Chain of RSK4(Kin.Dom.2-C-terminal) (Q9UK32 426-683 limits assumed): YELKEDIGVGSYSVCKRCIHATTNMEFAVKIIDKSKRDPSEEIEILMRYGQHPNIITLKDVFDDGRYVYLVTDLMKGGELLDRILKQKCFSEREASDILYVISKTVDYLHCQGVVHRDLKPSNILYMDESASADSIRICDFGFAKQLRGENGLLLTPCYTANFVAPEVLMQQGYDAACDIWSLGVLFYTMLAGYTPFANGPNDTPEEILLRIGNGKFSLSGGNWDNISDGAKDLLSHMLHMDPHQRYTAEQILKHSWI
Source text: as §1

BRAF = BRAF (Homo sapiens (Human), UniProt P15056)
Source text: as §1

RIPK1 = RIPK1 (Homo sapiens (Human), UniProt Q13546)
Source text: as §1

With `CCN1CCN(Cc2ccc(Nc3nc4ccc(Oc5ccnc(NC(C)=O)c5)cc4n3C)cc2C(F)(F)F)CC1` [Compound I-2] the remaining binding at 1 µM (HIPK2) was 100%, the remaining binding at 1 µM (TSSK3) was 86% and the remaining binding at 1 µM (MAK) was 78%. For the same molecule, the remaining binding at 1 µM (ADCK3) was 85%, the remaining binding at 1 µM (EGFR(E746-A750del)) was 91% and the remaining binding at 1 µM (STK36) was 79%. It also gave a remaining binding at 1 µM (BLK) of 49%, a remaining binding at 1 µM (PIK3CA(E545A)) of 100% and a remaining binding at 1 µM (KIT(D816V)) of 56%. For the same molecule, the remaining binding at 1 µM (FLT3(D835Y)) was 70%, the remaining binding at 1 µM (RIOK2) was 51% and the remaining binding at 1 µM (EGFR(G719S)) was 96%. For the same molecule, the remaining binding at 1 µM (TLK1) was 87%, the remaining binding at 1 µM (TBK1) was 73% and the remaining binding at 1 µM (CSNK1D) was 100%. It also gave a remaining binding at 1 µM (ABL1-phosphorylated) of 23%, a remaining binding at 1 µM (ICK) of 100% and a remaining binding at 1 µM (TIE1) of 11%. The remaining binding at 1 µM (MYLK4) was 100%, the remaining binding at 1 µM (NEK2) was 97% and the remaining binding at 1 µM (CHEK2) was 96%. The remaining binding at 1 µM (PDGFRA) was 3.8%, the remaining binding at 1 µM [1] was 30% and the remaining binding at 1 µM (PRKD3) was 84%. The remaining binding at 1 µM (PRKCH) was 100%, the remaining binding at 1 µM (NEK4) was 56% and the remaining binding at 1 µM (ANKK1) was 100%. The remaining binding at 1 µM (JNK3) was 100%, the remaining binding at 1 µM (ITK) was 97% and the remaining binding at 1 µM (NDR2) was 62%. It also gave a remaining binding at 1 µM [2] of 70%, a remaining binding at 1 µM (ADCK4) of 84% and a remaining binding at 1 µM (RET(V804L)) of 15%. The remaining binding at 1 µM (PIK4CB) was 99%, the remaining binding at 1 µM (GRK7) was 88% and the remaining binding at 1 µM (KIT(V559D, T670I)) was 1.2%. For the same molecule, the remaining binding at 1 µM [3] was 86%, the remaining binding at 1 µM (BRAF) was 3.9% and the remaining binding at 1 µM (RIPK1) was 88%.
`CCN1CCN(Cc2ccc(Nc3nc4ccc(Oc5ccnc(NC(C)=O)c5)c(C)c4n3C)cc2C(F)(F)F)CC1` [Compound I-6, N-(4-(2-(4-((4-ethylpiperazin-1-yl)methyl)-3-(trifluoromethyl)phenylamino)-1,7-dimethyl-1H-benzo[d]imidazol-6-yloxy)pyridin-2-yl)acetamide] gave a remaining binding at 1 µM (HIPK2) of 86%, a remaining binding at 1 µM (TSSK3) of 100% and a remaining binding at 1 µM (MAK) of 86%. It also gave a remaining binding at 1 µM (ADCK3) of 100%, a remaining binding at 1 µM (EGFR(E746-A750del)) of 89% and a remaining binding at 1 µM (STK36) of 92%. For the same molecule, the remaining binding at 1 µM (BLK) was 17%, the remaining binding at 1 µM (PIK3CA(E545A)) was 100% and the remaining binding at 1 µM (KIT(D816V)) was 50%. The remaining binding at 1 µM (FLT3(D835Y)) was 56%, the remaining binding at 1 µM (RIOK2) was 96% and the remaining binding at 1 µM (EGFR(G719S)) was 100%. It also gave a remaining binding at 1 µM (TLK1) of 93%, a remaining binding at 1 µM (TBK1) of 100% and a remaining binding at 1 µM (CSNK1D) of 100%. It also gave a remaining binding at 1 µM (ABL1-phosphorylated) of 11%, a remaining binding at 1 µM (ICK) of 82% and a remaining binding at 1 µM (TIE1) of 4%. The remaining binding at 1 µM (MYLK4) was 96%, the remaining binding at 1 µM (NEK2) was 91% and the remaining binding at 1 µM (CHEK2) was 90%. It also gave a remaining binding at 1 µM (PDGFRA) of 4.2%, a remaining binding at 1 µM [1] of 33% and a remaining binding at 1 µM (PRKD3) of 92%. It also gave a remaining binding at 1 µM (PRKCH) of 87%, a remaining binding at 1 µM (NEK4) of 56% and a remaining binding at 1 µM (ANKK1) of 100%. The remaining binding at 1 µM (JNK3) was 77%, the remaining binding at 1 µM (ITK) was 98% and the remaining binding at 1 µM (NDR2) was 97%. The remaining binding at 1 µM [2] was 100%, the remaining binding at 1 µM (ADCK4) was 78% and the remaining binding at 1 µM (RET(V804L)) was 7.8%. It also gave a remaining binding at 1 µM (PIK4CB) of 73%, a remaining binding at 1 µM (GRK7) of 95% and a remaining binding at 1 µM (KIT(V559D, T670I)) of 1.5%. For the same molecule, the remaining binding at 1 µM [3] was 97%, the remaining binding at 1 µM (BRAF) was 9.2% and the remaining binding at 1 µM (RIPK1) was 96%.
